Active and inactive are the calls of the source. The calls are words filed in the database; no cut-off is given here.
Columns and labels:
SH-SY5Y [1] = assay: Neuroprotective activity against CdCl2-induced toxicity in human SH-SY5Y cells assessed as cell viability at 25 uM preincubated for 2 hrs followed by CdCl2 challenge and measured after 24 hrs by CCK8 assay (reference value: 46.2 +/- 1.7%); type: functional; conditions: read-out: Activity
SH-SY5Y [2] = assay: Neuroprotective activity against CdCl2-induced endoplasmic reticulum stress-mediated apoptosis in human SH-SY5Y cells assessed as downregulation of cleaved caspase-3 protein expression at 25 uM preincubated for 2 hrs followed by CdCl2 challenge and measured after 24 hrs by Western blot analysis; type: functional, cell-based
SH-SY5Y [3] = assay: Neuroprotective activity against CdCl2-induced endoplasmic reticulum stress-mediated apoptosis in human SH-SY5Y cells assessed as downregulation of cleaved caspase-12 protein expression at 25 uM preincubated for 2 hrs followed by CdCl2 challenge and measured after 24 hrs by Western blot analysis; type: functional, cell-based
SH-SY5Y [4] = assay: Neuroprotective activity against CdCl2-induced endoplasmic reticulum stress-mediated apoptosis in human SH-SY5Y cells assessed as downregulation of CHOP protein expression at 25 uM preincubated for 2 hrs followed by CdCl2 challenge and measured after 24 hrs by Western blot analysis; type: functional, cell-based
SH-SY5Y [5] = assay: Neuroprotective activity against CdCl2-induced endoplasmic reticulum stress-mediated apoptosis in human SH-SY5Y cells assessed as downregulation of GRP78 protein expression at 25 uM preincubated for 2 hrs followed by CdCl2 challenge and measured after 24 hrs by Western blot analysis; type: functional, cell-based
SH-SY5Y [6] = assay: Induction of apoptosis in human SH-SY5Y cells at 25 uM after 24 hrs by annexin V/propidium iodide staining-based flow cytometric analysis relative to control; type: cell-based
SH-SY5Y [7] = assay: Neuroprotective activity against CdCl2-induced apoptosis in human SH-SY5Y cells assessed as apoptosis rate at 25 uM preincubated for 2 hrs followed by CdCl2 challenge and measured after 24 hrs by annexin V/propidium iodide staining-based flow cytometric analysis (reference value: 73.2%); type: functional

Compound	viability at 25 µM (SH-SY5Y [1]) [%]	other results
O=C1Nc2cc3c(cc2CN2C(=O)CC[C@@H]12)OCO3	59.2	–
O=C1Nc2ccc(Br)cc2CN2C(=O)CC[C@H]12	60.4	–
O=C1Nc2ccc(Cl)cc2CN2C(=O)CC[C@@H]12	61.4	–
COc1cc2c(cc1OCc1ccccc1)CN1C(=O)CC[C@@H]1C(=O)N2	60.4	–
O=C1[C@@H]2CCC(=O)N2Cc2ccccc2N1CCCCCN1CCN(c2ncccn2)CC1	51.4	–
O=C1Nc2ccc(Cl)cc2CN2C(=O)CC[C@H]12	56.2	–
Cc1ccccc1-c1ccc2c(c1)CN1C(=O)CC[C@H]1C(=O)N2	39.8	–
COc1cc2c(cc1OCc1ccccc1)CN1C(=O)CC[C@H]1C(=O)N2CCCCN1CCN(c2ccccn2)CC1	68.6	Activity (SH-SY5Y [2]): Active; Activity (SH-SY5Y [3]): Active; Activity (SH-SY5Y [4]): Active; Activity (SH-SY5Y [5]): Active; Activity (SH-SY5Y [6]): 4.2 to 5%; Activity (SH-SY5Y [7]): 18.7%
O=C1[C@@H]2CCC(=O)N2Cc2ccccc2N1CCCCN1CCN(c2ccccn2)CC1	66.2	–
O=C1[C@@H]2CCC(=O)N2Cc2ccccc2N1CCCN1CCN(c2ncccn2)CC1	51.3	–
O=C1Nc2ccccc2CN2C(=O)CC[C@@H]12	52.2	–
O=C1[C@@H]2CCC(=O)N2Cc2cc(Br)ccc2N1CCCCN1CCN(c2ncccn2)CC1	63.1	–
COc1cc2c(cc1OCc1ccccc1)CN1C(=O)CC[C@H]1C(=O)N2CCCCN1CCN(c2ncccn2)CC1	62.2	–
COc1cc2c(cc1OCc1ccccc1)CN1C(=O)CC[C@H]1C(=O)N2	66.2	–
Cc1ccc(-c2ccc3c(c2)CN2C(=O)CC[C@@H]2C(=O)N3)cc1	36.2	–
O=C1Nc2cc3c(cc2CN2C(=O)CC[C@H]12)OCO3	56.6	–
O=C1[C@@H]2CCC(=O)N2Cc2ccccc2N1CCCCN1CCN(c2ncccn2)CC1	59.2	–
O=C1Nc2ccc(Br)cc2CN2C(=O)CC[C@@H]12	66.1	–
O=C1[C@@H]2CCC(=O)N2Cc2ccccc2N1CCCCCN1CCN(c2ccccn2)CC1	59.2	–
Cc1ccccc1-c1ccc2c(c1)CN1C(=O)CC[C@@H]1C(=O)N2	42.3	–
COc1cc2c(cc1O)CN1C(=O)CC[C@H]1C(=O)N2	55.7	–
O=C1[C@@H]2CCC(=O)N2Cc2cc(Br)ccc2N1CCCCN1CCN(c2ccccn2)CC1	62.4	–
Cc1ccc(-c2ccc3c(c2)CN2C(=O)CC[C@H]2C(=O)N3)cc1	33.9	–
COc1cc2c(cc1O)CN1C(=O)CC[C@@H]1C(=O)N2	56.8	–
O=C1[C@@H]2CCC(=O)N2Cc2ccccc2N1CCCN1CCN(c2ccccn2)CC1	56.7	–
O=C1Nc2ccccc2CN2C(=O)CC[C@H]12	48.4	–

Source: ChEMBL document CHEMBL4229570, “Pyrrolo[2,1-c][1,4] benzodiazepine-3,11-diones protect SHSY-5Y cells from Cd-induced apoptosis involving suppression of endoplasmic reticulum stress” (Bioorg Med Chem, 2018)
